{"source": "patent US10772876B2", "about": "“Enhancers of Notch signaling and the use thereof in the treatment of cancers and malignancies medicable by upregulation of Notch” (XENIOPRO GmbH, priority 2016, dated 2020)", "key": {"[1]": {"test_system": "Notch1 full-length receptor", "test": "Notch1 full-length receptor driven luciferase reporter assay (HeLa co-culture with DLL4 ligand expressing HeLa cells)", "assay_type": "cell-based", "details": "for Notch signaling relative to the DMSO control: control treatments, FIG. 1", "experimental": "As used herein, the term “enhancing Notch signaling” refers to an effect on a cellular Notch-driven luciferase reporter assay, by which the Notch signaling enhancing properties of the compounds of the invention are determined. The Notch-driven luciferase reporter assay consists of HeLa cells engineered to express the Notch1 full length receptor, and to harbor a CSL-driven firefly luciferase expression construct as well as a Notch independent Renilla luciferase construct for the purpose of normalisation. These cells are co-cultured with engineered HeLa cells expressing the Notch ligand D114 to induce Notch signaling, thus to induce the expression of the firefly luciferase enzyme. The intensity of a luciferase-driven reporter signal is considered as a measure for Notch signaling.\nA compound is considered as having an effect of enhancing Notch signaling if said compound results relative to DMSO in ≥1.5-fold increase, preferably in ≥2.0-fold increase, more preferably in ≥2.5-fold increase and most preferably in ≥3.0-fold increase of the Luciferase-driven reporter signal in the frame of the named Notch-dependent luciferase reporter assay.\nFIG. 1. […] The indicated compounds were tested at 10 μM concentration in a Notch-driven luciferase reporter assay. HeLa cells had been engineered to express the Notch1 full-length receptor, the firefly luciferase (expression dependent on Notch signaling) and the renilla luciferase (expression independent on Notch signaling). Cells were co-cultured in a 96 well-plate with DLL4 ligand expressing HeLa cells to induce Notch signaling and simultaneously treated with DMSO or indicated compounds for 20 h. Notch signaling activation was then quantified by measuring luciferase-dependent luminescence intensities upon treatment with appropriate substrates. The firefly values were normalized against the renilla values to obtain the relative luminescence intensities (represented by the bars).\n(§1) A brief description of the assay is given in the description of FIG. 1. If not stated differently, all assays were performed using a Notch1 full-length receptor driven reporter system. Values are normalized against DMSO. a) V126 (black rhombi) was tested at the indicated concentrations. […] The control readouts for DMSO (black), CB103 (white), V126 at 10 μM and V126 at 1 μM (diagonal lines) were taken as usual after incubation for 20 h. c) V126 was tested in combination with an equimolar amount of the y-secretase inhibitor DAPT or the Notch inhibitor CB103 at 10 μM concentration each. d) V126 and the indicated compounds were tested at 10 μM in a luciferase reporter assay driven by the Notch2 receptor isoform. e) V126 and the indicated compounds were tested at 10 μM in a luciferase assay driven by the constitutively active form of the Notch1 receptor (N1ICD, Notch1 intracellular domain)."}, "[2]": {"test_system": "N1ICD, Notch1 intracellular domain", "test": "Luciferase assay driven by the constitutively active form of the Notch1 receptor (N1ICD)", "assay_type": "cell-based", "details": "10 μM, FIG. 2e", "experimental": "as §1\n(§2) To rule out that V126 is directly enhancing the activity of the luciferase enzyme, the Notch reporter assay was challenged by applying V126 treatment immediately prior to the readout. […] Moreover, the Notch-enhancing activity of V126 could be partially and completely rescued by combinational equimolar treatment with the γ-secretase inhibitor DAPT or the Notch inhibitor CB103, respectively, further confirming the ability of V126 to upregulate Notch signaling (FIG. 2c)."}, "SCC13 cells": {"test_system": "SCC13 cells", "test": "Involucrin protein expression in SCC13 cells (Western Blot)", "assay_type": "cell-based, human", "details": "10 μM, 48 h, β-actin as loading control", "experimental": "Cells were treated with DMSO or V126 at a concentration of 10 μM for 48 h. Total cell lysates were applied on Western Blot analysis using β-actin as loading control.\nNotch activation in the skin is known to drive differentiation of keratinocytes resulting in the induction of differentiation markers such as involucrin (C. Nowell, Cold Spring Harb Perspect Med. 2013, 3, 12), (G. P. Dotto, Oncogene 2008, 27, 5115-5123). […] In the spleen, marginal zone B-cells (MZBs) and follicular B-cells (FoBs) are the two main types of mature B-cells, both of which develop from the same precursor cells, namely the transitional B-cells (TBs). Notch2 signaling was reported to play a crucial role in the development of MZBs (S. Pillai, Nat. Rev. Immunol. 2009, 9, 767-777) and increased Notch2 signaling in the spleen leads to an expansion of the MZB compartment (F. Hampel, Blood 2011, 118, 24, 6321-6331). In contrast, the development of FoBs is not dependent on Notch signaling. To evaluate the effect of V126 in vivo, C57BL/6N mice were injected intraperitoneally with 25 mg/kg V126 once a day for one week. The impact of V126 on the different B-cell compartments in these mice was analyzed by flow cytometry on splenocytes, showing that V126 was capable to double the number of MZBs as compared to the control, whereas the FoB numbers were not affected (FIG. 4)."}, "[3]": {"test_system": "Notch2 full-length receptor", "test": "Luciferase reporter assay driven by the Notch2 receptor isoform (N2FL)", "assay_type": "cell-based", "details": "10 μM, FIG. 2d", "experimental": "as §1, §2"}, "luciferase enzyme": {"target": "T1, luciferase enzyme (Photinus pyralis, UniProt P08659)", "T1 construct": "expressed in transfected cells; host or cells: HeLa cells engineered with Notch1 full-length receptor, firefly and Renilla luciferase constructs, co-cultured with DLL4-expressing HeLa cells", "T1 sequence (P08659 whole entry)": "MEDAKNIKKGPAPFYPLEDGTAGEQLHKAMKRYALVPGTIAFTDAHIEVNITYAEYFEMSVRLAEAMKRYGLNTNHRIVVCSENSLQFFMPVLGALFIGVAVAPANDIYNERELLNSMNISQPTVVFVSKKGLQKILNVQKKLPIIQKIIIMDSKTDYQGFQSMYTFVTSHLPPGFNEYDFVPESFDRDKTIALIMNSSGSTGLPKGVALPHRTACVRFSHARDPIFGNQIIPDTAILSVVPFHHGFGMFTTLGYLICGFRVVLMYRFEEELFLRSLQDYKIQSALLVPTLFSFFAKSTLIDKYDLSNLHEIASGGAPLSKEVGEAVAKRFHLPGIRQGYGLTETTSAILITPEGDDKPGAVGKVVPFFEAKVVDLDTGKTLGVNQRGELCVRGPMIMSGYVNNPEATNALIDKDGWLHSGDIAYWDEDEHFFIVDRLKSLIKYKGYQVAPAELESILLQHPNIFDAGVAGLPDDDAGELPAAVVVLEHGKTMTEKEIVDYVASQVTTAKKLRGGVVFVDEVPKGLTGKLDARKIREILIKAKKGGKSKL", "test": "Direct influence on luciferase enzyme activity (treatment 5 min prior to readout of the Notch reporter assay)", "assay_type": "cell-based", "details": "10 μM and 1 μM, 5 min prior to the readout, FIG. 2b", "experimental": "as §1, §2"}, "CD4 T cells": {"test_system": "CD4 T cells", "test": "IFN-γ production and secretion of CD4 T cells under Th1 polarizing conditions", "assay_type": "cell-based, mice", "details": "10 μM, 96 hours, intracellular IFN-γ and Elisa of culture supernatants", "experimental": "FIGS. 5A-5C The Notch signaling enhancing compound V126 induces increased IFNy production and secretion in vitro. CD4 T cells isolated from naive CS7B/6 mice were cultured on plate bound α-CD3/α-CD28 (both 0.25μg/m1) under Th1 polarizing conditions (rlL-12, (5ng/ml) and anti-IL-4 (clone:11B11; […])) in the presence of DMSO, DAPT as y-secretase inhibitor and V126 at 10 μM. 96 hours after initiation of the culture, intracellular IFN-y levels a) and CD25 surface expression b) were assessed on PMA/lonomycin stimulated CD4 T cells. c) IFN-y cytokine levels were assessed in culture supernatants by Elisa under the same conditions as in a) and b)."}, "[4]": {"test_system": "splenic marginal zone B-cells (MZB)", "test": "Splenic B-cell compartments in mice by flow cytometry", "assay_type": "in vivo, C57BL/6N mice", "details": "25 mg/kg intraperitoneal once a day for one week", "experimental": "C57BL/6N mice were treated with 25 mg/kg V126 by intraperitoneal injection once a day for one week. a) Spleen cells were analyzed by flow cytometry. Shown are two representative plots of control (Ctrl., n=5) and V126 (n=4) treatments displaying the B220+cell (total B-cell) population. The gates encircle the respective MZB, FoB, and TB fractions with the corresponding numbers indicating the relative proportions (in percentage) of cells out of the B220+population. b) The bar diagrams quantify the relative MZB percentages from a) (left), and the recalculated total numbers of splenic MZBs (right). FoBs: Follicular B-cells, TBs: Transitional B-cells, see text.\nNotch activation in the skin is known to drive differentiation of keratinocytes resulting in the induction of differentiation markers such as involucrin (C. Nowell, Cold Spring Harb Perspect Med. 2013, 3, 12), (G. P. Dotto, Oncogene 2008, 27, 5115-5123). […] In the spleen, marginal zone B-cells (MZBs) and follicular B-cells (FoBs) are the two main types of mature B-cells, both of which develop from the same precursor cells, namely the transitional B-cells (TBs). […] The impact of V126 on the different B-cell compartments in these mice was analyzed by flow cytometry on splenocytes, showing that V126 was capable to double the number of MZBs as compared to the control, whereas the FoB numbers were not affected (FIG. 4)."}}, "note": "Entries after “also recorded” stand apart in the source; their conditions may differ."}
{"smiles": "CC(C)(C)c1ccc(Oc2ccc(N)cn2)cc1", "note": "[CB103, reference compound]", "values": [{"measurement": "Notch signaling relative to the DMSO control", "setting": "[1]; 20 h", "result": "decrease in Notch signaling"}]}
{"smiles": "CC(C)(C)c1ccc(Oc2ccc(C(=O)O)cc2)cc1", "note": "[V126, 4-(4-(tert-Butyl)phenoxy)benzoic acid]", "values": [{"measurement": "enhancement of N1ICD driven signaling", "setting": "[2]", "result": "enhance the signaling cascade taking place downstream of ligand-mediated activation of Notch signaling"}, {"measurement": "expression of the differentiation marker involucrin at the protein level", "setting": "SCC13 cells", "result": "increased protein expression"}, {"measurement": "luciferase values after treatment for 20 h in the very same readout", "setting": "[1]; 10 μM and 1 μM, 20 h, FIG. 2b", "result": "expected upregulation"}, {"measurement": "rescue of the Notch-enhancing activity by combinational equimolar treatment with CB103", "setting": "[1]; V126 plus Notch inhibitor CB103, 10 μM each, FIG. 2c", "result": "completely"}, {"measurement": "rescue of the Notch-enhancing activity by combinational equimolar treatment with DAPT", "setting": "[1]; V126 plus γ-secretase inhibitor DAPT, 10 μM each, FIG. 2c", "result": "partially"}, {"measurement": "enhancement of Notch signaling", "setting": "[1]; concentration of 1↔M, FIG. 2a", "result": "strongly enhanced Notch signaling"}, {"measurement": "enhancement of Notch2 receptor driven signaling", "setting": "[3]", "result": "enhance signaling derived from different Notch receptor isoforms"}, {"measurement": "luciferase values after short-term treatment immediately prior to the readout", "setting": "luciferase enzyme", "result": "in the range of the DMSO control level"}, {"measurement": "IFNγ production and secretion", "setting": "CD4 T cells", "result": "increased"}, {"measurement": "FoB (follicular B-cell) numbers", "setting": "[4]", "result": "not affected"}, {"measurement": "number of splenic MZBs compared to the control", "setting": "[4]", "result": "increase; also recorded: double"}]}
{"smiles": "C[C@H](NC(=O)Cc1cc(F)cc(F)c1)C(=O)N[C@H](C(=O)OC(C)(C)C)c1ccccc1", "note": "[DAPT, reference compound]", "values": [{"measurement": "Notch signaling relative to the DMSO control", "setting": "[1]; 20 h", "result": "decrease in Notch signaling"}]}
{"smiles": "CCCC(CCC)C(=O)O", "note": "[valproic acid, reference compound]", "values": [{"measurement": "effect on Notch signaling", "setting": "[1]; concentrations up to 40 μM, FIG. 2a", "result": "did not show any effect"}]}
